Experiment [1] concerns ob/ob (Lep^ob) mouse. The experiment can be described thus: Fasting blood glucose (FBG) in ob/ob mouse. To be noted: ob/ob mice; 5 or 10 mg/kg ip every 3 days, 4 doses; study day 14 after overnight fast. Type of experiment: in vivo. As for the experimental part: (§1) To determine in vivo efficacy of the aminosteroid analogues an ob/ob (Lep^ob) mouse model was used. Ob/ob mice are extensively used for screening of antidiabetic and/or anti-obesity agents. Ob/ob mice were treated with either saline or 5 or 10 mg/kg aminosteroid analogue every 3 days for a total of 4 doses via ip injection. Body weight, glucose tolerance and fasting blood glucose levels were measured for each group during the study. Each group had at least an N of 4 animals. All reagents and lab animals are commercially available.
On study day 13, all animal groups were fasted overnight. On study day 14, 25 μL of whole blood was collected and analyzed for the glucose level (mg/dL) using a glucose analyzer.

The target in experiment [2] is T1, full length tyrosine phosphatase PTP1B (Homo sapiens, UniProt P18031).
T1 construct: purchased
T1 sequence (P18031 1-435): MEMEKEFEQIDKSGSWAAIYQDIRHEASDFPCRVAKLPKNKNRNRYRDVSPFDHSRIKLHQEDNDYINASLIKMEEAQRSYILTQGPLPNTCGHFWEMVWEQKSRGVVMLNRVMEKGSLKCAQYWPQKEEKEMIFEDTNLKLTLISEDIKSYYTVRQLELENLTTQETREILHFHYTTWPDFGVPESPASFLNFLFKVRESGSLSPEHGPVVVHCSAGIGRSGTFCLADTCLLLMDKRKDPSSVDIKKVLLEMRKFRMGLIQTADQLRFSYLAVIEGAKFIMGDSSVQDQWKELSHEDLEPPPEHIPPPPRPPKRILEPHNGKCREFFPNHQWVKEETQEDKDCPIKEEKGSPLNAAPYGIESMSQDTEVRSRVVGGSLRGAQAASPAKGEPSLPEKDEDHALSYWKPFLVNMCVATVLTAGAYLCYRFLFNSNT
Briefly: Inhibition of PTP1B (pNPP hydrolysis, absorbance at 405 nm). To be noted: 5 μM aminosteroid analogue; pNPP substrate; read-out: PTP1B % Inhib. at (5 μM). Type of experiment: biochemical. On the procedure:
(§2) The aminosteroid analogues were tested for inhibition against the commercially available full length tyrosine phosphatase PTP1B. The ability of each analogue to inhibit the activity of PTP1B was measured in the presence of 5 μM of the aminosteroid analogue. The assay uses para-nitro-phenyl phosphate (pNPP), a non-specific substrate to assess phosphatase activity. Phosphatase activity was based on the ability of PTP1B to catalyze the hydrolysis of pNPP to p-nitrophenol (pNP).

A short description of experiment [3]: Body weight change in ob/ob mouse. Type of experiment: in vivo. To be noted: ob/ob mice; 5 or 10 mg/kg ip every 3 days, 4 doses; % change in body weight vs study day 0, up to 30 days. On the procedure: as §1
Starting at study day 0, body weight measurements were taken every day for each group for up to 30 days. Percent change in body weight was calculated as the fractional response of body weight on study day X over the original body weight on study day 0.

Experiment [4] has as its system ob/ob (Lep^ob) mouse. The experiment can be described thus: Oral glucose tolerance test (OGTT) in ob/ob mouse. Type of experiment: in vivo. To be noted: ob/ob mice; for change in vivo: Mus musculus, 336 h, 5 or 10 mg/kg ip every 3 days, 4 doses, OGTT study day 14, 1.5 g/kg oral glucose, 0-120 min, read-out: AbAUC % Change From Saline; for reduction in AbAUC compared to saline control (significance): OGTT study day 14, p<0.05. On the procedure:
as §1
On study day 14, an oral glucose tolerance test (OGTT) was performed to assess glucose tolerance. At time 0, an oral glucose challenge (1.5 g/kg) was administered by oral gavage. At time points 0, 15, 30, 60, 90, and 120 min post glucose load, 25 μl of whole blood was withdrawn from the tail vein of the animal and the glucose level was measured using a glucose analyzer. The glucose concentration vs time was plotted and the above baseline area under the curve (AbAUC) of the glucose excursion time curve was determined using trapezoidal rule analyses.

A further experiment addresses T2, full length TCPTP (Homo sapiens, UniProt P17706).
T2 construct: except full length TCPTP was used as the enzyme
T2 sequence (P17706 1-415): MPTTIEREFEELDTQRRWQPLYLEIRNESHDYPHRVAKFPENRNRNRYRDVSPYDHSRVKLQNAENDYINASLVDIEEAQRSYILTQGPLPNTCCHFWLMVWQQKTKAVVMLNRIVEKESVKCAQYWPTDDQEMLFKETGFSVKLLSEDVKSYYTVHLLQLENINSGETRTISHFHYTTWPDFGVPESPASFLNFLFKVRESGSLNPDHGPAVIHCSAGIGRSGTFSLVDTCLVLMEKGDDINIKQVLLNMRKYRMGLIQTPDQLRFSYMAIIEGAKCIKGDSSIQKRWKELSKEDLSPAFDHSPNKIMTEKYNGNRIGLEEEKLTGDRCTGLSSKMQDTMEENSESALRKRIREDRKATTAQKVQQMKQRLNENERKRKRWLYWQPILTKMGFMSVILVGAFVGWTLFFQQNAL
Briefly: Inhibition of TCPTP (pNPP hydrolysis, same manner as PTP1B assay). Type of experiment: biochemical. To be noted: 200 μM inhibitor; pNPP substrate; read-out: TCPTP % Inhib. at (200 μM). As for the experimental part: as §2
The aminosteroid analogues were also tested for their ability to inhibit the tyrosine phosphatase TCPTP as an indication of their potential toxicity by the inhibition of the immune response. The TCPTP inhibition assay was done in the same manner as the PTP1B assay except full length TCPTP was used as the enzyme and the inhibitor was at a concentration of 200 μM. The results of the TCPTP inhibition assays are shown in Table 1, column 4 and show three compounds that inhibit TCPTP less than 50% even at a […] greater concentration.

In the case of `CC(C)[C@@H](CC[C@@H](C)[C@H]1CC[C@H]2[C@@H]3[C@H](O)C[C@H]4C[C@@H](NCCCNCCCCNCCCN)CC[C@]4(C)[C@H]3CC[C@]12C)OS(=O)(=O)O` [MSI-1436, reference compound], the “FBG % Change From Saline” value in the experiment with ob/ob (Lep^ob) mouse [1] is given as −51.3%. In addition, the inhibition at 5 µM in experiment [2] is 54%. For the same compound, the “% BW Nader” value in experiment [3] is −52.6%. Moreover, the change in vivo with ob/ob (Lep^ob) mouse [4] was -55.9%.
For `CCNC(=O)N(CCCN(C)C)C(=O)C(C)[C@H]1CCC2C3CC[C@H]4CC(NCCNC)CC[C@]4(C)C3CC[C@@]21C` (stereo partly drawn) [MSI-2500], the inhibition at 5 µM in experiment [2] amounted to 0%.
`CCN(C(=O)NCCCN(C)C)C(=O)C(C)[C@H]1CCC2C3CC[C@H]4CC(NCCNC)CC[C@]4(C)C3CC[C@@]21C` (stereo partly drawn) [MSI-2501]: in experiment [2], the inhibition at 5 µM amounted to 0%.
In the case of `CC(C)CCC[C@@H](C)[C@H]1CCC2C3C[C@@H](O)[C@H]4C[C@@H](NCCN)CC[C@]4(C)C3CC[C@@]21C` (stereo partly drawn) [MSI-2502], in experiment [2], the inhibition at 5 µM amounted to 0%.
Regarding `CC(C)CCC[C@@H](C)[C@H]1CCC2C3C[C@@H](O)[C@H]4C[C@H](NCCCN)CC[C@]4(C)C3CC[C@@]21C` (stereo partly drawn) [MSI-2504], the inhibition at 200 µM on full length TCPTP was 22%. In experiment [2], the inhibition at 5 µM is 43%.
With `CC(C)CCC[C@@H](C)[C@H]1CCC2C3C[C@@H](O)[C@H]4C[C@@H](NCCCN)CC[C@]4(C)C3CC[C@@]21C` (stereo partly drawn) [MSI-2505], the inhibition at 5 µM in experiment [2] was 39%.
Regarding `CC(C)CCC[C@@H](C)[C@H]1CCC2C3C[C@@H](O)[C@H]4C[C@H](NCCCNCCCCN)CC[C@]4(C)C3CC[C@@]21C` (stereo partly drawn) [MSI-2506], at full length TCPTP, the inhibition at 200 µM was found to be 60%. For the same compound, the inhibition at 5 µM in experiment [2] was determined as 60%.
For the compound `COC(=O)CC[C@@H](C)[C@H]1CCC2C3C(CC[C@@]21C)[C@@]1(C)CC[C@@H](NCCN2CCCCC2)C[C@H]1C[C@H]3O` (stereo partly drawn) [MSI-2507], the inhibition at 200 µM on full length TCPTP is -11%. The “FBG % Change From Saline” value with ob/ob (Lep^ob) mouse [1] is reported as −9.4%. Besides, the inhibition at 5 µM in experiment [2] is 94%. Further, the “% BW Nader” value in experiment [3] is 1.4%. In the experiment with ob/ob (Lep^ob) mouse [4], the change in vivo was -45.8% and the “reduction in AbAUC compared to saline control (significance)” value was “significant reduction”.
As to `COC(=O)CC[C@@H](C)[C@H]1CCC2C3C(CC[C@@]21C)[C@@]1(C)CC[C@@H](NCCCCNCc2cccnc2)C[C@@H]1C[C@H]3O` (stereo partly drawn) [MSI-2510], at full length TCPTP, the inhibition at 200 µM worked out at 23%. Moreover, the “FBG % Change From Saline” value in the experiment with ob/ob (Lep^ob) mouse [1] is 12.0%. In addition, the inhibition at 5 µM in experiment [2] amounted to 72%. The “% BW Nader” value in experiment [3] was 1.6%. Besides, in the experiment on ob/ob (Lep^ob) mouse [4], the change in vivo is -32.9% and the “reduction in AbAUC compared to saline control (significance)” value is given as “significant reduction”.
For the compound `CC(C)NCCNC1CC[C@]2(C)C3CC[C@@]4(C)C(CC[C@@H]4[C@H](C)CCC(=O)O)C3C[C@@H](O)[C@H]2C1` (stereo partly drawn) [MSI-2515], the inhibition at 200 µM on full length TCPTP was found to be 19%. Besides, the inhibition at 5 µM in experiment [2] worked out at 89%.
Taken in the same sequence, the figures for `CC(C)CCC[C@@H](C)[C@H]1CCC2C3C[C@@H](O)[C@H]4C[C@@H](NCCCNCCCCNCCCN)CC[C@]4(C)C3CC[C@@]21C` (stereo partly drawn) [MSI-2516] were 25% and 56%.
The corresponding values for `CC(C)CCC[C@@H](C)[C@H]1CCC2C3C[C@@H](O)[C@H]4C[C@H](NCCCNCCCCNCCCN)CC[C@]4(C)C3CC[C@@]21C` (stereo partly drawn) [MSI-2517] are 11% and 51%.
Taken in the same sequence, the figures for `COC(=O)CC[C@@H](C)[C@H]1CCC2C3C(CC[C@@]21C)[C@@]1(C)CC[C@H](NCCN2CCCCC2)C[C@@H]1C[C@H]3O` (stereo partly drawn) [MSI-2518] were 12% and 102%.
Take `COC(=O)CC[C@@H](C)[C@H]1CCC2C3C(CC[C@@]21C)[C@@]1(C)CCC(NCCNC(C)C)C[C@@H]1C[C@H]3O` (stereo partly drawn) [MSI-2519]: the inhibition at 200 µM at full length TCPTP turned out to be 26%. Moreover, the inhibition at 5 µM in experiment [2] worked out at 102%.
Taken in the same sequence, the figures for `COC(=O)CC[C@@H](C)[C@H]1CCC2C3CC[C@@H]4C[C@H](NCCNC(C)C)CC[C@]4(C)C3CC[C@@]21C` (stereo partly drawn) [MSI-2521] were 67% and 103%.
Taken in the same sequence, the figures for `COC(=O)CC[C@@H](C)[C@H]1CCC2C3CC[C@@H]4C[C@@H](NCCNC(C)C)CC[C@]4(C)C3CC[C@@]21C` (stereo partly drawn) [MSI-2522] were 50% and 104%.
The corresponding values for `COC(=O)CC[C@@H](C)[C@H]1CCC2C3C[C@H](O)[C@@H]4C[C@H](NCCNC(C)C)CC[C@]4(C)C3CC[C@@]21C` (stereo partly drawn) [MSI-2523] are 8% and 101%.
Consider `COC(=O)CC[C@@H](C)[C@H]1CCC2C3C[C@H](O)[C@@H]4C[C@@H](NCCNC(C)C)CC[C@]4(C)C3CC[C@@]21C` (stereo partly drawn) [MSI-2524], for which the inhibition at 200 µM on full length TCPTP is 15%. Besides, in experiment [2], the inhibition at 5 µM stood at 103%.
As to `COC(=O)CC[C@@H](C)[C@H]1CCC2C3CC[C@@H]4C[C@@H](NCCNC(C)C)CC[C@]4(C)C3C[C@H](O)[C@@]21C` (stereo partly drawn) [MSI-2526], in experiment [2], the inhibition at 5 µM was determined as 104%.
For the compound `COC(=O)CC[C@@H](C)[C@H]1CCC2C3C(CC[C@@]21C)[C@@]1(C)CCC(NCCNC(C)C)C[C@@H]1C[C@H]3NC(=O)OC` (stereo partly drawn) [MSI-2528], the inhibition at 200 µM at full length TCPTP was determined as 2%. For the same compound, the inhibition at 5 µM in experiment [2] came out at 75%.
The corresponding values for `COC(=O)CC[C@@H](C)[C@H]1CCC2C3C(CC[C@@]21C)[C@@]1(C)CC[C@@H](NCCNC(C)C)C[C@@H]1C[C@H]3SC` (stereo partly drawn) [MSI-2529] are 4% and 64%.
Consider `COC(=O)CC[C@@H](C)[C@H]1CCC2C3C(CC[C@@]21C)[C@@]1(C)CCC(NCCNC(C)C)C[C@@H]1C[C@H]3S(C)(=O)=O` (stereo partly drawn) [MSI-2530], for which the inhibition at 200 µM at full length TCPTP came out at 1%. Also, in experiment [2], the inhibition at 5 µM was 46%.
The corresponding values for `COC(=O)CC[C@@H](C)[C@H]1CCC2C3C(CC[C@@]21C)[C@@]1(C)CC[C@H](NCCNC(C)C)C[C@@H]1C[C@H]3S(C)(=O)=O` (stereo partly drawn) [MSI-2531] are 1% and 48%.
Take `COC(=O)CC[C@@H](C)[C@H]1CCC2C3C(CC[C@@]21C)[C@@]1(C)CCC(NCCN(C)C)C[C@H]1C[C@H]3O` (stereo partly drawn) [MSI-2533]: the inhibition at 200 µM at full length TCPTP turned out to be 5%.
As to `COC(=O)CC[C@@H](C)[C@H]1CCC2C3CC[C@@H]4C[C@H](NCCN(C)C)CC[C@]4(C)C3CC[C@@]21C` (stereo partly drawn) [MSI-2534], the inhibition at 200 µM at full length TCPTP stood at 0%.
The same measure, in the same setting: to `COC(=O)CC[C@@H](C)[C@H]1CCC2C3CC[C@@H]4CC(NCCN(C)C)CC[C@]4(C)C3CC[C@@]21C` (stereo partly drawn) [MSI-2535] belongs 8%.

For the origin of these results see US9546194B2, “Aminosteroids for the treatment of a PTP1B associated disease” (Ohr Pharmaceutical Inc., priority 2012, dated 2017).
